What was measured:
Format in all cases: ADME, organism-based
[1] = Cmax in human plasma expressing CYP2C8*4 allele carrier polymorphism at 25 to 32 mg by LC/MS/MS analysis
[2] = Half life in men plasma at 25 to 32 mg by LC/MS/MS analysis; settings: male, human
[3] = Tmax in human plasma expressing CYP2C9*2 allele carrier polymorphism at 25 to 32 mg by LC/MS/MS analysis
[4] = Tmax in human plasma expressing CYP2C8*3 allele carrier polymorphism at 25 to 32 mg by LC/MS/MS analysis
[5] = Clearance in human plasma expressing CYP2C8*1/*1 polymorphism at 25 to 32 mg by LC/MS/MS analysis
[6] = Cmax in women plasma at 25 to 32 mg by LC/MS/MS analysis; settings: female, human
[7] = Half life in human plasma expressing CYP2C8*3 allele carrier polymorphism at 25 to 32 mg by LC/MS/MS analysis
[8] = AUC in human plasma expressing CYP2C9*2 allele carrier polymorphism at 25 to 32 mg by LC/MS/MS analysis
[9] = Tmax in men plasma at 25 to 32 mg by LC/MS/MS analysis; settings: male, human
[10] = Half life in human plasma expressing CYP2C9*1/*1 polymorphism at 25 to 32 mg by LC/MS/MS analysis
[11] = Cmax in human plasma expressing CYP2C9*2 allele carrier polymorphism at 25 to 32 mg by LC/MS/MS analysis
[12] = Half life in human plasma expressing CYP2C8*2 allele carrier polymorphism at 25 to 32 mg by LC/MS/MS analysis
[13] = Cmax in human plasma expressing CYP2C8*1/*1 polymorphism at 25 to 32 mg by LC/MS/MS analysis
[14] = Half life in human plasma expressing CYP2C8*4 allele carrier polymorphism at 25 to 32 mg by LC/MS/MS analysis
[15] = Half life in women plasma at 25 to 32 mg by LC/MS/MS analysis; settings: female, human
[16] = Clearance in human plasma expressing CYP2C9*2 allele carrier polymorphism at 25 to 32 mg by LC/MS/MS analysis
[17] = Half life in human plasma expressing CYP2C8*1/*1 polymorphism at 25 to 32 mg by LC/MS/MS analysis
[18] = Cmax in human plasma expressing CYP2C9*3 allele carrier polymorphism at 25 to 32 mg by LC/MS/MS analysis
[19] = Cmax in men plasma at 25 to 32 mg by LC/MS/MS analysis; settings: male, human
[20] = AUC in human plasma expressing CYP2C9*3 allele carrier polymorphism at 25 to 32 mg by LC/MS/MS analysis
[21] = Clearance in men plasma at 25 to 32 mg by LC/MS/MS analysis; settings: male, human
[22] = AUC in men plasma at 25 to 32 mg by LC/MS/MS analysis; settings: male, human
[23] = Clearance in human plasma expressing CYP2C9*3 allele carrier polymorphism at 25 to 32 mg by LC/MS/MS analysis
[24] = Clearance in human plasma expressing CYP2C9*1/*1 polymorphism at 25 to 32 mg by LC/MS/MS analysis
[25] = Cmax in human plasma expressing CYP2C8*2 allele carrier polymorphism at 25 to 32 mg by LC/MS/MS analysis
[26] = AUC in women plasma at 25 to 32 mg by LC/MS/MS analysis; settings: female, human
[27] = Half life in human plasma expressing CYP2C9*3 allele carrier polymorphism at 25 to 32 mg by LC/MS/MS analysis
[28] = Cmax in human plasma expressing CYP2C8*3 allele carrier polymorphism at 25 to 32 mg by LC/MS/MS analysis
[29] = Half life in human plasma expressing CYP2C9*2 allele carrier polymorphism at 25 to 32 mg by LC/MS/MS analysis
[30] = Tmax in human plasma expressing CYP2C8*1/*1 polymorphism at 25 to 32 mg by LC/MS/MS analysis
[31] = AUC in human plasma expressing CYP2C8*2 allele carrier polymorphism at 25 to 32 mg by LC/MS/MS analysis
[32] = AUC in human plasma expressing CYP2C9*1/*1 polymorphism at 25 to 32 mg by LC/MS/MS analysis
[33] = Clearance in human plasma expressing CYP2C8*4 allele carrier polymorphism at 25 to 32 mg by LC/MS/MS analysis
[34] = AUC in human plasma expressing CYP2C8*1/*1 polymorphism at 25 to 32 mg by LC/MS/MS analysis
[35] = Tmax in human plasma expressing CYP2C8*4 allele carrier polymorphism at 25 to 32 mg by LC/MS/MS analysis
[36] = AUC in human plasma expressing CYP2C8*4 allele carrier polymorphism at 25 to 32 mg by LC/MS/MS analysis
[37] = Cmax in human plasma expressing CYP2C9*1/*1 polymorphism at 25 to 32 mg by LC/MS/MS analysis
[38] = AUC in human plasma expressing CYP2C8*3 allele carrier polymorphism at 25 to 32 mg by LC/MS/MS analysis
[39] = Tmax in human plasma expressing CYP2C8*2 allele carrier polymorphism at 25 to 32 mg by LC/MS/MS analysis
[40] = Tmax in human plasma expressing CYP2C9*3 allele carrier polymorphism at 25 to 32 mg by LC/MS/MS analysis
[41] = Tmax in women plasma at 25 to 32 mg by LC/MS/MS analysis; settings: female, human
[42] = Clearance in human plasma expressing CYP2C8*2 allele carrier polymorphism at 25 to 32 mg by LC/MS/MS analysis
[43] = Clearance in human plasma expressing CYP2C8*3 allele carrier polymorphism at 25 to 32 mg by LC/MS/MS analysis
[44] = Tmax in human plasma expressing CYP2C9*1/*1 polymorphism at 25 to 32 mg by LC/MS/MS analysis
[45] = Clearance in women plasma at 25 to 32 mg by LC/MS/MS analysis; settings: female, human
[46] = Half life in human plasma expressing CYP2C9*3 allele carrier polymorphism treated with losartan at 50 mg by LC/MS/MS analysis
[47] = Cmax in human plasma expressing CYP2C8*3 allele carrier polymorphism treated with losartan at 50 mg by LC/MS/MS analysis; set-up: dose 50 mg
[48] = Cmax in human plasma expressing CYP2C9*3 allele carrier polymorphism treated with losartan at 50 mg by LC/MS/MS analysis; set-up: dose 50 mg
[49] = Half life in men plasma treated with losartan at 50 mg by LC/MS/MS analysis; settings: male, human
[50] = AUC in human plasma expressing CYP2C9*1/*1 polymorphism treated with losartan at 50 mg by LC/MS/MS analysis
[51] = Tmax in human plasma expressing CYP2C9*3 allele carrier polymorphism treated with losartan at 50 mg by LC/MS/MS analysis
[52] = Tmax in human plasma expressing CYP2C8*4 allele carrier polymorphism treated with losartan at 50 mg by LC/MS/MS analysis
[53] = Tmax in human plasma expressing CYP2C8*3 allele carrier polymorphism treated with losartan at 50 mg by LC/MS/MS analysis
[54] = Half life in human plasma expressing CYP2C8*4 allele carrier polymorphism treated with losartan at 50 mg by LC/MS/MS analysis
[55] = AUC in men plasma treated with losartan at 50 mg by LC/MS/MS analysis; settings: male, human
[56] = Cmax in women plasma treated with losartan at 50 mg by LC/MS/MS analysis; set-up: dose 50 mg; settings: female, human
[57] = Cmax in human plasma expressing CYP2C9*2 allele carrier polymorphism treated with losartan at 50 mg by LC/MS/MS analysis; set-up: dose 50 mg
[58] = Half life in human plasma expressing CYP2C9*2 allele carrier polymorphism treated with losartan at 50 mg by LC/MS/MS analysis
[59] = Cmax in human plasma expressing CYP2C8*1/*1 polymorphism treated with losartan at 50 mg by LC/MS/MS analysis; set-up: dose 50 mg
[60] = AUC in women plasma treated with losartan at 50 mg by LC/MS/MS analysis; settings: female, human
[61] = Tmax in men plasma treated with losartan at 50 mg by LC/MS/MS analysis; settings: male, human
[62] = AUC in human plasma expressing CYP2C9*2 allele carrier polymorphism treated with losartan at 50 mg by LC/MS/MS analysis
[63] = AUC in human plasma expressing CYP2C8*4 allele carrier polymorphism treated with losartan at 50 mg by LC/MS/MS analysis
[64] = Half life in human plasma expressing CYP2C9*1/*1 polymorphism treated with losartan at 50 mg by LC/MS/MS analysis
[65] = Tmax in human plasma expressing CYP2C9*2 allele carrier polymorphism treated with losartan at 50 mg by LC/MS/MS analysis
[66] = Tmax in human plasma expressing CYP2C9*1/*1 polymorphism treated with losartan at 50 mg by LC/MS/MS analysis
[67] = Cmax in men plasma treated with losartan at 50 mg by LC/MS/MS analysis; set-up: dose 50 mg; settings: male, human
[68] = Half life in human plasma expressing CYP2C8*3 allele carrier polymorphism treated with losartan at 50 mg by LC/MS/MS analysis
[69] = Tmax in human plasma expressing CYP2C8*1/*1 polymorphism treated with losartan at 50 mg by LC/MS/MS analysis
[70] = Cmax in human plasma expressing CYP2C9*1/*1 polymorphism treated with losartan at 50 mg by LC/MS/MS analysis; set-up: dose 50 mg
[71] = Half life in human plasma expressing CYP2C8*1/*1 polymorphism treated with losartan at 50 mg by LC/MS/MS analysis
[72] = AUC in human plasma expressing CYP2C9*3 allele carrier polymorphism treated with losartan at 50 mg by LC/MS/MS analysis
[73] = Cmax in human plasma expressing CYP2C8*4 allele carrier polymorphism treated with losartan at 50 mg by LC/MS/MS analysis; set-up: dose 50 mg
[74] = AUC in human plasma expressing CYP2C8*3 allele carrier polymorphism treated with losartan at 50 mg by LC/MS/MS analysis
[75] = Tmax in women plasma treated with losartan at 50 mg by LC/MS/MS analysis; settings: female, human
[76] = AUC in human plasma expressing CYP2C8*1/*1 polymorphism treated with losartan at 50 mg by LC/MS/MS analysis
[77] = Half life in women plasma treated with losartan at 50 mg by LC/MS/MS analysis; settings: female, human

CCOc1nc2cccc(C(=O)O)c2n1Cc1ccc(-c2ccccc2-c2nnn[nH]2)cc1
Cmax [1]: 287 ng/mL | half-life [2]: 11.3 h | Tmax [3]: 4.8 h | Tmax [4]: 5.1 h | clearance [5]: 2.5 mL/min/kg | Cmax [6]: 260 ng/mL | half-life [7]: 12 h | AUC [8]: 3450 ng·h/mL | Tmax [9]: 5.1 h | half-life [10]: 10.9 h | Cmax [11]: 217 ng/mL | half-life [12]: 10.7 h | Cmax [13]: 242 ng/mL | half-life [14]: 11.2 h | half-life [15]: 12.1 h | clearance [16]: 2.5 mL/min/kg | half-life [17]: 11.7 h | Cmax [18]: 230 ng/mL | Cmax [19]: 216 ng/mL | AUC [20]: 3630 ng·h/mL | clearance [21]: 2.33 mL/min/kg | AUC [22]: 3260 ng·h/mL | clearance [23]: 2.5 mL/min/kg | clearance [24]: 2.33 mL/min/kg | Cmax [25]: 289 ng/mL | AUC [26]: 3810 ng·h/mL | half-life [27]: 12.1 h | Cmax [28]: 214 ng/mL | half-life [29]: 12.8 h | Tmax [30]: 5.2 h | AUC [31]: 3580 ng·h/mL | AUC [32]: 3590 ng·h/mL | clearance [33]: 2.17 mL/min/kg | AUC [34]: 3510 ng·h/mL | Tmax [35]: 4.1 h | AUC [36]: 4130 ng·h/mL | Cmax [37]: 258 ng/mL | AUC [38]: 3450 ng·h/mL | Tmax [39]: 3.4 h | Tmax [40]: 5 h | Tmax [41]: 4.9 h | clearance [42]: 2.5 mL/min/kg | clearance [43]: 2.67 mL/min/kg | Tmax [44]: 5.1 h | clearance [45]: 2.5 mL/min/kg

CCCCc1nc(Cl)c(C(=O)O)n1Cc1ccc(-c2ccccc2-c2nn[nH]n2)cc1 [CARBOXYLIC ACID METABOLITE]
half-life [46]: 5.7 h | Cmax [47]: 196 ng/mL | Cmax [48]: 154 ng/mL | half-life [49]: 4.9 h | AUC [50]: 2140 ng·h/mL | Tmax [51]: 4.3 h | Tmax [52]: 2.8 h | Tmax [53]: 3.7 h | half-life [54]: 4.6 h | AUC [55]: 1810 ng·h/mL | Cmax [56]: 301 ng/mL | Cmax [57]: 224 ng/mL | half-life [58]: 4.9 h | Cmax [59]: 249 ng/mL | AUC [60]: 2580 ng·h/mL | Tmax [61]: 3.7 h | AUC [62]: 1770 ng·h/mL | AUC [63]: 2270 ng·h/mL | half-life [64]: 4.6 h | Tmax [65]: 3.5 h | Tmax [66]: 3.7 h | Cmax [67]: 209 ng/mL | half-life [68]: 5.1 h | Tmax [69]: 3.9 h | Cmax [70]: 292 ng/mL | half-life [71]: 4.8 h | AUC [72]: 2860 ng·h/mL | Cmax [73]: 382 ng/mL | AUC [74]: 1500 ng·h/mL | Tmax [75]: 3.7 h | AUC [76]: 2330 ng·h/mL | half-life [77]: 4.8 h
